Assay results as given in patent US6511965B2, “Ether type lipid A 1-carboxylic acid analogs” (Sankyo Company, Limited, priority 1999, dated 2003).
Where two headings read alike, the source gives them in different places.

Experiments:
[1] = tested on: TNF α production by U937 cells; assay: Test on macrophage activity inhibition (antagonist test): LPS antagonistic activity on TNFα production by U937 cells; format: cell-based; conditions: in the presence of 10 ng/ml of LPS, human monocytic U937 cells, 6 hours, TNFα by ELISA, concentration suppressing TNFα to 50% of standard production amount, read-out: IC50(nM), LPS antagonistic activities of the compounds on TNF α production by U937 cells
Protocol: Test on macrophage activity inhibition (antagonist test).
TNFα is produced in vitro using human monocytic cell strain U937. The production amount of TNFα is determined by ELISA KIT of Genzyme Corporation.
Evaluation is carried out in accordance with the method of Daniel-Issakani, et al. (Journal of Biological Chemistry, 264, 20240-20247 (1989)).
By 10 ng/ml of LPS (lipopolysaccharide), about 1 ng of TNFα is produced per 10^5 cells of U937 during 6 hours (designated as a standard production amount: 100%).
In the presence of 10 ng/ml of LPS, the concentration of each of the compounds obtained in the Examples at which the production amount of TNFα is suppressed to 50% of the standard production amount is determined and it is expressed as ED50%.

IC50 ([1]; U-937)	melting point	Structure (SMILES)	IC50 [1]
11 nM		CCCCCCCCCCCCCC(=O)O[C@H](CCCCCCCCCCC)CCO[C@H]1[C@H](OP(=O)(O)O)[C@@H](CO)OC(OC[C@H]2O[C@H](C(=O)O)[C@H](NC(=O)C[C@H](O)CCCCCCCCCCC)[C@@H](OCC[C@H](O)CCCCCCCCCCC)[C@@H]2O)[C@@H]1NC(C)=O (stereo partly drawn) [Example 1, 2,6-Anhydro-7-O-[2-acetylamino-2-deoxy-4-O-phosphono-3-O-{(R)-3-tetradecanoyloxytetradecyl}-D-glucopyranosyl]-3-{(R)-3-hydroxytetradecanoylamino}-4-O-{(R)-3-hydroxytetradecyl}-3-deoxy-D-glycero-D-ido-heptonic Acid]	
1.2 nM		CCCCCCCCCCCCCC(=O)O[C@H](CCCCCCCCCCC)CCO[C@@H]1[C@@H](NC(C)=O)[C@H](OC[C@H]2O[C@H](C(=O)O)[C@H](NC(=O)C[C@H](O)CCCCCCCCCCC)[C@@H](OCC[C@H](O)CCCCCCCCCCC)[C@@H]2O)O[C@H](CF)[C@H]1OP(=O)(O)O [Example 3, 2,6-Anhydro-7-O-[2-acetylamino-2,6-dideoxy-6-fluoro-4-O-phosphono-3-O-{(R)-3-tetradecanoyloxytetradecyl}-β-D-glucopyranosyl]-3-{(R)-3-hydroxytetradecanoylamino}-4-O-{(R)-3-hydroxytetradecyl}-3-deoxy-D-glycero-D-ido-heptonic Acid]	
0.61 nM		CCCCCCCCCCCCCC(=O)O[C@H](CCCCCCCCCCC)CCO[C@@H]1[C@@H](NC(C)=O)[C@H](OC[C@H]2O[C@H](C(=O)O)[C@H](NC(=O)C[C@H](O)CCCCCCCCCCC)[C@@H](OCC[C@H](O)CCCCCCCCCCC)[C@@H]2O)O[C@H](COC)[C@H]1OP(=O)(O)O [Example 2, 2,6-Anhydro-7-O-[2-acetylamino-2-deoxy-6-O-methyl-4-O-phosphono-3-O-{(R)-3-tetradecanoyloxytetradecyl}-β-D-glucopyranosyl]-3-{(R)-3-hydroxytetradecanoylamino}-4-O-{(R)-3-hydroxytetradecyl}-3-deoxy-D-glycero-D-ido-heptonic Acid]	
11 nM	179 to 181 °C	CCCCCCCCCCCCO[C@H](CCCCCCCCCCC)CCO[C@@H]1[C@@H](NC(C)=O)[C@H](OC[C@H]2O[C@H](C(=O)O)[C@H](NC(=O)C[C@H](O)CCCCCCCCCCC)[C@@H](OCC[C@H](O)CCCCCCCCCCC)[C@@H]2O)O[C@H](CO)[C@H]1OP(=O)(O)O [Example 4, 2,6-Anhydro-7-O-[2-acetylamino-2-deoxy-3-O-{(R)-3-dodecyloxytetradecyl}-4-O-phosphono-β-D-glucopyranosyl]-3-{(R)-3-hydroxytetradecanoylamino}-4-O-{(R)-3-hydroxytetradecyl}-3-deoxy-D-glycero-D-ido-heptonic Acid]	
		CCCCCCCCCCCCO[C@H](CCCCCCCCCCC)CCO[C@@H]1[C@@H](NC(C)=O)[C@H](OC[C@H]2O[C@H](C(=O)O)[C@H](NC(=O)C[C@H](O)CCCCCCCCCCC)[C@@H](OCC[C@H](O)CCCCCCCCCCC)[C@@H]2O)O[C@H](COC)[C@H]1OP(=O)(O)O [Example 5, 2,6-Anhydro-7-O-[2-acetylamino-2-deoxy-3-O-{(R)-3-dodecyloxytetradecyl}-6-O-methyl-4-O-phosphono-β-D-glucopyranosyl]-3-{(R)-hydroxytetradecanoylamino}-4-O-{(R)-3-hydroxytetradecyl}-3-deoxy-D-glycero-D-ido-heptonic Acid]	6.4 nM
		CCCCCCCCCCCCO[C@H](CCCCCCCCCCC)CCO[C@@H]1[C@@H](NC(C)=O)[C@H](OC[C@H]2O[C@H](C(=O)O)[C@H](NC(=O)C[C@H](O)CCCCCCCCCCC)[C@@H](OCC[C@H](O)CCCCCCCCCCC)[C@@H]2O)O[C@H](CF)[C@H]1OP(=O)(O)O [Example 6]	10 nM
